Source: ChEMBL document CHEMBL3046563, “Synthesis and antihypertensive activity evaluation in spontaneously hypertensive rats of nitrendipine analogues” (2011)

How the values were obtained:
Type in all cases: functional, Artery
Details in all cases: route intragastric
[1] = system: Rattus norvegicus; assay: Antihypertensive activity in spontaneously hypertensive Rattus norvegicus (rat) assessed as reduction of systolic blood pressure at 2 mg/kg, ig after 1 hr
[2] = system: Rattus norvegicus; assay: Antihypertensive activity in spontaneously hypertensive Rattus norvegicus (rat) assessed as reduction of systolic blood pressure at 4 mg/kg, ig after 8 hr
[3] = system: Rattus norvegicus; assay: Antihypertensive activity in spontaneously hypertensive Rattus norvegicus (rat) assessed as reduction of systolic blood pressure at 4 mg/kg, ig after 6 hr
[4] = system: Rattus norvegicus; assay: Antihypertensive activity in spontaneously hypertensive Rattus norvegicus (rat) assessed as reduction of systolic blood pressure at 4 mg/kg, ig after 4 hr
[5] = system: Rattus norvegicus; assay: Antihypertensive activity in spontaneously hypertensive Rattus norvegicus (rat) assessed as reduction of systolic blood pressure at 2 mg/kg, ig after 4 hr
[6] = system: Rattus norvegicus; assay: Antihypertensive activity in spontaneously hypertensive Rattus norvegicus (rat) assessed as reduction of systolic blood pressure at 4 mg/kg, ig after 2 hr
[7] = system: Rattus norvegicus; assay: Antihypertensive activity in spontaneously hypertensive rat assessed as reduction of systolic blood pressure at 2 mg/kg, ig after 2 hr
[8] = system: Rattus norvegicus; assay: Antihypertensive activity in spontaneously hypertensive Rattus norvegicus (rat) assessed as reduction of systolic blood pressure at 4 mg/kg, ig after 1 hr
[9] = system: Rattus norvegicus; assay: Antihypertensive activity in spontaneously hypertensive Rattus norvegicus (rat) assessed as reduction of systolic blood pressure at 1 mg/kg, ig after 2 hr
[10] = system: Rattus norvegicus; assay: Antihypertensive activity in spontaneously hypertensive Rattus norvegicus (rat) assessed as reduction of systolic blood pressure at 1 mg/kg, ig after 1 hr

| SMILES | Activity [1] [mmHg] | Activity [5] [mmHg] | Activity [7] [mmHg] | also measured |
| --- | --- | --- | --- | --- |
| CCOC(=O)C1=C(C)NC(C)=C(C(=O)OC)C1c1cccc([N+](=O)[O-])c1 (stereo in doubt; 1) [NITRENDIPINE] |  |  |  | Activity ([1]; 2 mg/kg): 26 mmHg |
| CCCCCCCCCCOC(=O)C1=C(C)NC(C)=C(C(=O)OC)C1c1cccc([N+](=O)[O-])c1 (configuration not stated) | 31 |  |  |  |
| CCCCCCCCOC(=O)C1=C(C)NC(C)=C(C(=O)OC)C1c1cccc([N+](=O)[O-])c1 (configuration not stated) | 38 |  |  |  |
| CCCCCCCOC(=O)C1=C(C)NC(C)=C(C(=O)OC)C1c1cccc([N+](=O)[O-])c1 (racemic) | 52 | -4 | 42 | Activity [2]: 21 mmHg; Activity [3]: 45 mmHg; Activity [4]: 67 mmHg; Activity [6]: 107 mmHg; Activity [8]: 119 mmHg |
| CCCCCCCOC(=O)C1=C(C)NC(C)=C(C(=O)OC)[C@@H]1c1cccc([N+](=O)[O-])c1 | 93 | -2 | 47 |  |
| CCCCCCCCCCCCOC(=O)C1=C(C)NC(C)=C(C(=O)OC)C1c1cccc([N+](=O)[O-])c1 (configuration not stated) | 17 |  |  |  |
| CCCOC(=O)C1=C(C)NC(C)=C(C(=O)OC)C1c1cccc([N+](=O)[O-])c1 (configuration not stated) | 43 |  |  |  |
| CCCCCOC(=O)C1=C(C)NC(C)=C(C(=O)OC)C1c1cccc([N+](=O)[O-])c1 (configuration not stated) | 44 |  |  |  |
| CCOC(=O)C1=C(C)NC(C)=C(C(=O)OC)C1c1cccc([N+](=O)[O-])c1 (stereo in doubt; 2) [NITRENDIPINE] |  | -2 | 8 | Activity [9]: 0 mmHg; Activity [10]: 33 mmHg; Activity ([1]; 2 mg/kg): 39 mmHg |
